Among the data in ChEMBL document CHEMBL5247646, “Discovery of 2-Aminopyrimidines as Potent Agonists for the Bitter Taste Receptor TAS2R14” (J Med Chem, 2023) are Ki, EC50 and Emax values, retold here.

Each structure is given as a SMILES string. pEC50, pKi: −log10 of the molar value.

Broadly, the pKi is the negative decadic logarithm of the Ki, by convention in mol/L. Low values mean a large Ki, high ones a small Ki. One may read the pEC50 as −log10 of the EC50, conventionally taken in molar units. Usually Emax stands for the maximal effect, on the per cent scale that the assay sets.

D(3) dopamine receptor, sequence (P35462 whole entry): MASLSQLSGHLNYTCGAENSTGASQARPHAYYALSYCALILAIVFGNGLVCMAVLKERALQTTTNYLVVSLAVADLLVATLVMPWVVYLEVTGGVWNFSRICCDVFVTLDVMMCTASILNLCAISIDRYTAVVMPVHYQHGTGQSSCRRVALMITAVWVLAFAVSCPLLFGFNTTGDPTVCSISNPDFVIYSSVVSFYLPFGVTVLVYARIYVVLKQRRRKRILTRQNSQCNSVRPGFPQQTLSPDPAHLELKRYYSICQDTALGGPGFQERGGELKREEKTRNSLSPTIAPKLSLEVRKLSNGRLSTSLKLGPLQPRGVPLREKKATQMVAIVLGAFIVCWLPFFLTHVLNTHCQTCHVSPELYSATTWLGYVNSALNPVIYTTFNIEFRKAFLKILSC

The first test has as its target D(3) dopamine receptor (Homo sapiens, UniProt P35462). Kind of test: Displacement of [3H]methylspiperone from human D3 receptor stably expressed in HEK293T cells by Cheng-Prusoff equation analysis.
Conditions: not given
The class given is cell-based. On the technique in general: In a radioligand displacement assay an active substance lowers the binding of a labelled ligand.
As to `Cc1cc(C(F)(F)F)nc(Nc2ccccc2-c2nnn[nH]2)n1`, the negative logarithm of the Ki (pKi) was 5.96.

The target in a further test is T1, Taste receptor type 2 member 14 (Homo sapiens, UniProt Q9NYV8).
T1 sequence (Q9NYV8 whole entry): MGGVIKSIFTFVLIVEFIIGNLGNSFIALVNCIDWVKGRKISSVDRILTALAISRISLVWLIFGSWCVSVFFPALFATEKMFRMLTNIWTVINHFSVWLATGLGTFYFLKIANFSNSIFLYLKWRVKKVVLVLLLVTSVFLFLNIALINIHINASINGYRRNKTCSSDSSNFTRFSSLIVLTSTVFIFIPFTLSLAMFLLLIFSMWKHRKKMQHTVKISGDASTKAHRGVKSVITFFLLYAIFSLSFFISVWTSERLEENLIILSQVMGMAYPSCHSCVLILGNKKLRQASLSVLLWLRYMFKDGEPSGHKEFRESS
Kind of test: Partial agonist activity at human TAS2R14 transfected in HEK293T cells assessed as IP1 accumulation measured after 150 mins by IP1 accumulation assay. The class given is cell-based.
Conditions: not given
In the case of `FC(F)(F)c1cc(Nc2ccccc2-c2nnn[nH]2)cc(C(F)(F)F)c1`, the pEC50 was 7.00.

Another test deals with T2, D(2) dopamine receptor (Homo sapiens, UniProt P14416). Nature of the test: Displacement of [3H]methylspiperone from human D2S receptor stably expressed in CHO cells by Cheng-Prusoff equation analysis. Type of test: cell-based.
T2 sequence (P14416 whole entry): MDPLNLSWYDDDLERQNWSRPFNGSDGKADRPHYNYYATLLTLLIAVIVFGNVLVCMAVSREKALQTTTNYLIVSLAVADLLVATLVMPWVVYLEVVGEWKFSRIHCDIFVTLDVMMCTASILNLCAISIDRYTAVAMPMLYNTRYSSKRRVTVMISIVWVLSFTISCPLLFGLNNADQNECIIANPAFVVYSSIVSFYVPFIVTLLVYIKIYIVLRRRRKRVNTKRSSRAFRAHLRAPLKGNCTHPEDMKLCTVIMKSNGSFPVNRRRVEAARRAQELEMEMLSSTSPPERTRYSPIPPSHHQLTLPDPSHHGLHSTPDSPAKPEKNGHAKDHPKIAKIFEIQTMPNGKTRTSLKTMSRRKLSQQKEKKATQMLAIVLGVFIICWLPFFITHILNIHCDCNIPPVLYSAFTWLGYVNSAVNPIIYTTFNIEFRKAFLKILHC
Conditions: not given
The compound `Cc1cc(C(F)(F)F)nc(Nc2ccccc2-c2nnn[nH]2)n1` gave a pKi of 5.14.

Another test has as its target T3, Taste receptor type 2 member 14 (Homo sapiens) (UniProt Q9NYV8).
T3 sequence (whole entry): T1 sequence (Q9NYV8 whole entry)
Nature of the test: Partial agonist activity at human TAS2R14 transfected in HEK293T cells assessed as IP1 accumulation measured after 150 mins by IP1 accumulation assay relative to control. Type of test: cell-based. The note with it: filed as partial agonist.
With `FC(F)(F)c1cc(Nc2ccccc2-c2nnn[nH]2)cc(C(F)(F)F)c1`, the Emax turned out to be 80%.

A further test concerns the target T4, Alpha-2C adrenergic receptor (Homo sapiens, UniProt P18825).
T4 sequence (P18825 whole entry): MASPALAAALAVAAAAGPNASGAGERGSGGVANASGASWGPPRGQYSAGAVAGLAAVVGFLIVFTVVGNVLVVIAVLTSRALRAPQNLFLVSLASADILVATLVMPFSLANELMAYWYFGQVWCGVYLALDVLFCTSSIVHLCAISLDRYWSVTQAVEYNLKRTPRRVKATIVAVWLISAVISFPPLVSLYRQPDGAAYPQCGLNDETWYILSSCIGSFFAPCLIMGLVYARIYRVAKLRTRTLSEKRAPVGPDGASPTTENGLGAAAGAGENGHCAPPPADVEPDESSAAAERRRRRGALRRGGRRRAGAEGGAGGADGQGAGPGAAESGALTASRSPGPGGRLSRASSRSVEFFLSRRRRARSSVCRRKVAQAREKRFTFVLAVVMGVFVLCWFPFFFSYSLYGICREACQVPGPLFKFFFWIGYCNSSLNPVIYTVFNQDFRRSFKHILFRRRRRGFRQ
Nature of the test: Displacement of [3H]RX821002 from human alpha2C receptor stably expressed in HEK293T cells by Cheng-Prusoff equation analysis.
Conditions: not given
The class given is cell-based.
`C#Cc1cc(Nc2ccccc2C(=O)O)cc(C(F)(F)F)c1`: the pKi is 4.77.

A further test has as its target T3, Taste receptor type 2 member 14 (Homo sapiens). Nature of the test: Agonist activity at human TAS2R14 transfected in HEK293T cells assessed as IP1 accumulation at 10 uM measured after 150 mins by IP1 accumulation assay relative to flufenamic acid. The note with it: filed as agonist. Type of test: cell-based.
For `O=C(O)c1ccccc1Nc1ccnc(C(F)(F)F)c1`, the maximal effect (Emax) came to 52%.

For another test, the target named is T2, D(2) dopamine receptor. Nature of the test: Displacement of [3H]methylspiperone from human D2L receptor stably expressed in CHO cells by Cheng-Prusoff equation analysis. The class given is cell-based.
Conditions: not given
For `Cc1cc(C(F)(F)F)nc(Nc2ccccc2-c2nnn[nH]2)n1`, the pKi is 4.80.

Another test concerns the target T5, Muscarinic acetylcholine receptor M2 (Homo sapiens, UniProt P08172).
T5 sequence (P08172 whole entry): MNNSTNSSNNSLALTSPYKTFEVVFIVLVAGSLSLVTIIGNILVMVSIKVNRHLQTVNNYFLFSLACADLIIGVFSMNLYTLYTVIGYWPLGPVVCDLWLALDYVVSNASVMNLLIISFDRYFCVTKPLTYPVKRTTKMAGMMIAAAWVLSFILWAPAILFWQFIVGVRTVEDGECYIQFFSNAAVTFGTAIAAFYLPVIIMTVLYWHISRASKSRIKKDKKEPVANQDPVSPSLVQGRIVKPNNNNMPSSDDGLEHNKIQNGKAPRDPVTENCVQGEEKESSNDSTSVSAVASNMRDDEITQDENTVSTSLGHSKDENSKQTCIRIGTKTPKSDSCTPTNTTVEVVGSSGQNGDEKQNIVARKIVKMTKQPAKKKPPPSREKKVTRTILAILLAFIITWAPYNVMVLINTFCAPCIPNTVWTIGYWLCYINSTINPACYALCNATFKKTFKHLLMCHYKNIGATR
Nature of the test: Displacement of [3H]NMS from human M2 receptor stably expressed in HEK293T cells by Cheng-Prusoff equation analysis.
Conditions: not given
The class given is cell-based.
For `Cc1cc(C(F)(F)F)nc(Nc2ccccc2-c2nnn[nH]2)n1`, the negative logarithm of the Ki (pKi) was 5.64.

Another test addresses T3, Taste receptor type 2 member 14 (Homo sapiens). Kind of test: Agonist activity at human TAS2R14 transfected in HEK293T cells assessed as IP1 accumulation at 30 uM measured after 150 mins by IP1 accumulation assay relative to flufenamic acid. The class given is cell-based.
Conditions: not given
Consider `O=C(O)c1cccc(Nc2cccc(C(F)(F)F)c2)c1`, for which the maximal response (Emax) came to 27%.

Still in this test, the particulars now being: filed as agonist.
Consider `O=C(O)c1ccccc1Nc1cc(C#CC2CCCC2)cc(C(F)(F)F)c1`, for which the maximal effect (Emax) worked out at 64%.

Take `CN(c1cccc(C(F)(F)F)c1)c1ccccc1C(=O)O`: the Emax worked out at 59%.

Another test has as its target T1, Taste receptor type 2 member 14. Nature of the test: Agonist activity at human TAS2R14 transfected in HEK293T cells assessed as IP1 accumulation measured after 150 mins by IP1 accumulation assay. Type of test: cell-based.
Conditions: not given
Turning to `FC(F)(F)c1ccnc(Nc2ccccc2-c2nnn[nH]2)c1`, the negative logarithm of the EC50 (pEC50) is 6.44.

Turning to `O=C(O)c1ccccc1Nc1nccc(C(F)(F)F)n1`, the negative-log EC50 (pEC50) is 5.80. In the case of `Oc1cc(C(F)(F)F)nc(Nc2ccccc2-c2nnn[nH]2)n1`, the negative logarithm of the EC50 (pEC50) was 5.17. As to `Cc1ccc(C(F)(F)F)cc1Nc1ccccc1C(=O)O`, the pEC50 is 6.41. The same measure, in the same setting: then `FC(F)(F)c1cc(Nc2ccccc2-c2nnn[nH]2)ccn1`, with 5.46. Same read-out and setting: then `C#Cc1cc(C(F)(F)F)nc(Nc2ccccc2-c2nnn[nH]2)n1`, with 5.85; and `CC#Cc1cc(Nc2ccccc2C(=O)O)cc(C(F)(F)F)c1`, with 6.42. Regarding `FC(F)(F)c1cc(Cl)nc(Nc2ccccc2-c2nnn[nH]2)n1`, the negative logarithm of the EC50 (pEC50) was 6.27. For `Cc1cc(C(F)(F)F)nc(Nc2ccccc2-c2nnn[nH]2)n1`, the pEC50 is 7.14. Same read-out and setting: to `FC(F)(F)c1nccc(Nc2ccccc2-c2nnn[nH]2)n1` belongs 5.96; to `O=C(O)c1ccccc1Nc1cccc(C(F)(F)F)c1Br`, 5.68. Turning to `O=C(O)c1ccccc1Nc1cccc(C(F)(F)F)n1`, the negative-log EC50 (pEC50) was 6.17. As for `N#Cc1cc(C(F)(F)F)nc(Nc2ccccc2-c2nnn[nH]2)n1`, the pEC50 is 6.52. For the compound `O=C(O)c1ccccc1Nc1cc(C(F)(F)F)ccc1Br`, the pEC50 was 6.19. Turning to `Cc1c(Nc2ccccc2C(=O)O)cccc1C(F)(F)F`, the pEC50 is 5.74. For the compound `FC(F)(F)c1cccc(Nc2ccccc2-c2nnn[nH]2)n1`, the negative-log EC50 (pEC50) is 7.01. As for `Cc1ccc(Nc2ccccc2C(=O)O)cc1C(F)(F)F`, the pEC50 was 6.48. Regarding `CC(C)(C)c1cc(C(F)(F)F)nc(Nc2ccccc2-c2nnn[nH]2)n1`, the negative-log EC50 (pEC50) is 6.19. Turning to `O=C(O)c1ccccc1Nc1cncc(C(F)(F)F)c1`, the pEC50 was 5.92. Regarding `O=C(O)c1ccccc1Nc1cccc(Cl)c1`, the negative logarithm of the EC50 (pEC50) is 6.02.

For the compound `O=C(O)c1ccccc1Nc1cccc(OC(F)F)c1`, the negative logarithm of the EC50 (pEC50) was 6.03.

For `O=C(O)c1ccccc1Nc1cccc(S(F)(F)(F)(F)F)c1`, the pEC50 is 6.72. Same read-out and setting: then `Cc1cc(Nc2ccccc2C(=O)O)cc(C(F)(F)F)c1`, with 6.72; and `N#Cc1cc(Nc2ccccc2C(=O)O)cc(C(F)(F)F)c1`, with 6.74; and `N#Cc1ccc(Nc2ccccc2C(=O)O)cc1C(F)(F)F`, with 6.77. On to `FC(F)(F)c1ccnc(Nc2ccccc2-c2nnn[nH]2)n1`, for which the negative logarithm of the EC50 (pEC50) is 6.80. With `C#Cc1cc(Nc2ccccc2C(=O)O)cc(C(F)(F)F)c1`, the negative-log EC50 (pEC50) was 6.82. Take `O=C(O)c1ccccc1Nc1ccc(Br)c(C(F)(F)F)c1`: the pEC50 was 6.52.

As to `O=C(O)c1ccccc1Nc1cc(Br)cc(C(F)(F)F)c1`, the pEC50 was 6.64.

Turning to `N#Cc1ccc(C(F)(F)F)cc1Nc1ccccc1C(=O)O`, the pEC50 was 6.38.

On to `FC(F)(F)c1cc(I)nc(Nc2ccccc2-c2nnn[nH]2)n1`, for which the pEC50 was 6.12.

In a further test the target is T6, Alpha-2B adrenergic receptor (Homo sapiens, UniProt P18089).
T6 sequence (P18089 whole entry): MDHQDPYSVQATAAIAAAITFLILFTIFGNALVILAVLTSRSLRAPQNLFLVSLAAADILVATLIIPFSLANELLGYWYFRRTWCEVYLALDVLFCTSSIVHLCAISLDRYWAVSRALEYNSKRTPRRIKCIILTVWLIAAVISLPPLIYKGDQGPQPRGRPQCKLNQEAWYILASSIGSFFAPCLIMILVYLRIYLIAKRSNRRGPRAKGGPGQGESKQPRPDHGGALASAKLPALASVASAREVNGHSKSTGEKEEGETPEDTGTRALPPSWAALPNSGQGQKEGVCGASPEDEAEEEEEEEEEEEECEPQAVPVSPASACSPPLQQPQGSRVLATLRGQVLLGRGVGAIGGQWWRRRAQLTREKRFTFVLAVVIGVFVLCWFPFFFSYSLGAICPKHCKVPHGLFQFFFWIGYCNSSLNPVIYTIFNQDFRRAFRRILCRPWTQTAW
Nature of the test: Displacement of [3H]RX821002 from human alpha2B receptor stably expressed in HEK293T cells by Cheng-Prusoff equation analysis. Type of test: cell-based.
Conditions: not given
In turn, `C#Cc1cc(Nc2ccccc2C(=O)O)cc(C(F)(F)F)c1` had a pKi of 4.80.
